US20200087625A1, “METHODS FOR ISOLATING, EXPANDING AND ADMINISTERING CANCER SPECIFIC CD8+ T CELLS” (priority 2017, published 2020)

Test system: 4T1 cells
Assay: Secondary (orthotopic) 4T1 challenge after 1V270 therapy
Format: in vivo, BALB/c mice
Text: FIGS. 24A-24G. Tumor infiltrating T cells in 1V270 treated mice show high clonalities and increased frequency of intra- and inter-individual common clones (A) Experimental protocols of the secondary challenge studies. Two groups of BALB/c mice (n=5/group) were i.p, treated with 1V270. One cohort of mice was i.v. injected with 4T1-GLF cells (2×10^4) on day 0 and tumor growth in the lungs was monitored by IVIS on day 20. […] Native BALB/c mice served as controls. 4T1 cells were orthotopically inoculated on day 21. (B) Tumor growth was measured with a caliper and calculated using the formula: volume (mm3)=(width)2×length/2. (C) TILs s were isolated from the secondarily challenged tumor on day 39 and stained for CD8^+ T cells (CD3^+CD8^+) and PD-1. The numbers of tumor-infiltrating cos• T cells were expressed per tumor volume (mm^3). Data are representative of 2 independent experiments showing similar results. Results were analyzed by the Mann-Whitney U test comparing the 1V270 treatment groups against the vehicle treated group. **P<0.01. (D·G) TCR repertoire of CD8^+ T cells from TILs s and splenocytes were examined. (D) The clonality index (1-normalized Shannon index) of CD8^+ T cells infiltrating to the left side of the secondarily challenged tumor was plotted against tumor volume in the tumor exposed mice. Correlation between the clonality index and the tumor volume was evaluated by Pearson's method (R^2=0.97, p<0.05).
FIGS. 26A-26D. Intranasally administered 1V270 inhibits pulmonary colonization in experimental metastasis models (A) Protocol for testing the therapeutic efficacy of i.n. treatment with 1V270 in IV metastasis model. BALB/c mice (n=6-8/group) were i.n. administered with 1V270 (20 or 200 μg) or vehicle on days −3, −1, 3, 7, and 10. 4T1 cells were v. injected on day 0. (B) The numbers of lung nodules were counted on Day 21. *P<0.05 calculated by Kruskal-Wallis test with Dunn's post hoc test. (C) Intranasal 1V270 therapy attenuated the growth of secondarily challenged tumors. BALB/c mice (n=S) were i.n. treated with 200 μg 1V270 on days −3, −1, 3, 7 and 10. 4T1 cells were injected on day 0. On day 21, the surviving mice were orthotopically inoculated with 4T1 cells and tumor growth was monitored. The mice treated with 1V270 without i.v. tumor cell injection served as controls. (D) TILs were isolated from the secondarily challenged tumor, and the numbers of CD8^+ T cells and PD-1 expressing CD8^+ T cells were analyzed by flow cytometric assay. Data were analyzed by the Mann-Whitney U test comparing two groups. *P<0.05. Data are representative of 2 independent experiments showing similar results.
In the spontaneous metastasis model, othotopically implanted tumor cells spontaneously form lung metastases within three weeks after implantation. 5×10^5 4T1 cells were inoculated in both sides of the 4th mammary pads of female BALB/c mice. Tumor length and width were recorded, and tumor volumes were calculated using the formula: volume (mm^3)=(width)^2×length/2. On day 28, mice were euthanized and the lungs were stained with intratracheally injected India ink and destained in Fekete's solution to count tumor nodules. In the experimental metastasis model, 2×10^4 4T1 cells were i.v. injected. On day 21, mice were euthanized and tumor nodules in lungs were counted as described above. In the secondary challenge experiment, 1V270 treated-mice without tumor signals in the lungs on day 21 of the experimental metastasis protocol were included. 5×10^5 4T1 cells were inoculated in both sides of the 4th mammary p ads. Tumor length and width were recorded, and tumor volumes were calculated similar with
To validate that 1V270 therapy induced tumor-specific adaptive immune responses, we monitored the growth of secondarily challenged tumors following prior 1V270 treatment. The mice treated with 1V270 using the IV metastasis protocol were orthotopically re-challenged with 4T1 cells on day 21 (FIG. 24A). […]

[1] = intranasal 1V270, tumor-exposed vs no tumor exposure or naive

CCCCCCCCC=CCCCCCCCC(=O)OCC(COP(=O)(O)OCCNC(=O)c1ccc(Cn2c(=O)[nH]c3c(N)nc(OCCOC)nc32)cc1)OC(=O)CCCCCCCC=CCCCCCCCC (stereo not shown) [1V270] was tested, and the “numbers of CD8+ T cells in TILs” value (1V270-treated tumor-exposed vs 1V270-treated no-tumor exposed mice) was “Three-fold higher”, the “growth of secondarily challenged tumor” value (i.p. 1V270-treated and tumor-exposed mice vs naive or no-tumor exposed mice) was “significantly impaired” and the “growth of secondarily challenged tumor” value (i.p. 1V270-treated no-tumor exposed mice vs naive mice) was “no difference in the tumor growth”. For the same compound, the re-challenged tumor growth (intranasal 1V270, tumor-exposed mice) was “significantly inhibited”, the “number of CD8+ T cells in TILs” value [1] was “A higher number” and the “number of PD-1+CD8+ T cells in TILs” value [1] was “A higher number”. For the same compound, the “CD8+ T cells in TILs positive for PD-1” value (secondarily challenged tumor) was “more than 80%”.
